Laboratory results published in ChEMBL document CHEMBL1145653, “The alkaloids of Corydalis meifolia” (J Nat Prod, 1983).

Experiments:
Ileum [1] = assay: Spasmolytic activity against guinea pig ileum assessed as inhibition of spasmogen-induced contraction at 50 ug; assay type: functional, Cavia porcellus
Ileum [2] = assay: Spasmolytic activity against guinea pig ileum assessed as inhibition of spasmogen-induced contraction at 10 ug; assay type: functional, Cavia porcellus

| Structure (SMILES) | inhibition (INH) (Ileum [1]) | inhibition (INH) (Ileum [2]) |
| --- | --- | --- |
| COc1cc2c(cc1OC)[C@H]1[C@@H](C)c3ccc4c(c3CN1CC2)OCO4 [CAVIDINE] | 100% | 84% |
| COc1cc2c(cc1OC)[C@@H]([C@H]1OC(=O)c3c1ccc1c3OCO1)N(C)CC2 [CORLUMINE] | 50% | 0% |
| COc1cc2c(cc1OC)-c1c(C)c3ccc4c(c3c[n+]1CC2)OCO4.[Cl-] [DEHYDROCAVIDINE] | 40% | 20% |
| COc1cc2c(cc1OC)[C@]1([C@H](O)c3ccc4c(c3[C@@H]1O)OCO4)N(C)CC2 [YEMHUSOMINE] | 52% | 17% |
